According to paper PMC9901219 (European Journal of Medicinal Chemistry, 2023):

How the values were obtained:
Human Calpain 1 = target: T1, Human Calpain 1 (Homo sapiens, UniProt P07384); experiment: Calpain assay; format: biochemical
T1 sequence (P07384 1-714): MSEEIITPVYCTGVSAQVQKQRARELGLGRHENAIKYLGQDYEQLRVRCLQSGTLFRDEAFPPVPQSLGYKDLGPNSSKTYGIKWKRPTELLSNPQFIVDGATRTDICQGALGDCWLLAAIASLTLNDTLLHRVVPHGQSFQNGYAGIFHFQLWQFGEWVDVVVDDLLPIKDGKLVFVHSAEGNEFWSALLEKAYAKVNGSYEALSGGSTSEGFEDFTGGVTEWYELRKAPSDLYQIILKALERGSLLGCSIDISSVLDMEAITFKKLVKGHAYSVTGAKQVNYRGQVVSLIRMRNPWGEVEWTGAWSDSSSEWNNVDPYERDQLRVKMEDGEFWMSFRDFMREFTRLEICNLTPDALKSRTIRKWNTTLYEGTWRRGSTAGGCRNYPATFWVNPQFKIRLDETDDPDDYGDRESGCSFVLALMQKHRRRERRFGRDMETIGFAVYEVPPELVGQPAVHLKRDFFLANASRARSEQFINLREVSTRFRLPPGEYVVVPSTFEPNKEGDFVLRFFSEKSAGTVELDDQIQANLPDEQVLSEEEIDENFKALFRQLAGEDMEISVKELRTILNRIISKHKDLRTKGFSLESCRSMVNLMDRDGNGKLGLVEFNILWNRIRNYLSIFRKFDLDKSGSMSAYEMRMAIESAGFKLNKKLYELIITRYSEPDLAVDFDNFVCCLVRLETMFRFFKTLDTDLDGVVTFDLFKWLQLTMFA
T1 sequence (P04632 1-268 partner): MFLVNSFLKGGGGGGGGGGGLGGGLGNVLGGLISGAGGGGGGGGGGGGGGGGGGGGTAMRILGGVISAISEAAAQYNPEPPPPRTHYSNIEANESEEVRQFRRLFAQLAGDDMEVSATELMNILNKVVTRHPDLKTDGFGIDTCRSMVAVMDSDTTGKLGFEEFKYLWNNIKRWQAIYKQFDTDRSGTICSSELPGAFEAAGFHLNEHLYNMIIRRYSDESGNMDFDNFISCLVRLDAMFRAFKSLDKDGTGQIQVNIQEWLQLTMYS

SARS-CoV-2 3CLpro [1] = target: T2, SARS-CoV-2 3CLpro (Severe acute respiratory syndrome coronavirus 2, UniProt P0DTD1); experiment: biochemical
Cathepsin L = Cathepsin L (Homo sapiens, UniProt P07711); format: biochemical; settings: calpain 1 and cathepsin L versus SARS-CoV-2 3CLpro
Cathepsin L, sequence (P07711 114-333): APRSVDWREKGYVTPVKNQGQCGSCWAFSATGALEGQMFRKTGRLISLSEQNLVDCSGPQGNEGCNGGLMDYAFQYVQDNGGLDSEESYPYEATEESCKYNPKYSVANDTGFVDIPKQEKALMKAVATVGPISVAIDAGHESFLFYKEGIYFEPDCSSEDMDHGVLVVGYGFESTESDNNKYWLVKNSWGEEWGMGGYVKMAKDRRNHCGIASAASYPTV

SARS-CoV-2 3CLpro [2] = target: T2, SARS-CoV-2 3CLpro; format: biochemical
[3] = Stability of compound in enzymatic assay buffer with GSH; format: physicochemical
SARS-CoV-2 3CLpro [4] = target: T2, SARS-CoV-2 3CLpro; format: binding

With `Cc1cccc2nc(CSC(=S)NCc3cccnc3)cn12` [Compound 1, (5-methylimidazo[1,2-a]pyridin-2-yl)methyl (pyridin-3-ylmethyl)carbamodithioate] the IC50 (Human Calpain 1) was greater than 300 µM, the “Human Calpain 1 pIC50 ± SD” value (Human Calpain 1; GSH 2 mM, pre-incubation of 30 min) was greater than 3.52 and the “Assay without GSH pIC50 ± SD” value (SARS-CoV-2 3CLpro [1]) was 7.67 ± 0.30. For the same molecule, the “SARS-CoV-2 (Beta-CoV) 3CLpro pIC50 ± SD” value (SARS-CoV-2 3CLpro [1]) was 0.021 (7.67 ± 0.30), the IC50 (SARS-CoV-2 3CLpro [1]; SARS-CoV-2 3CLpro IC50) was 1.75 µM and the “selectivity over two human cysteine proteases” value (Cathepsin L) was “more than 80 fold”. For the same molecule, the “enzyme inhibition after jump dilution” value (SARS-CoV-2 3CLpro [2]) was “around 80%”, the “enzyme inhibition after jump dilution (words)” value (SARS-CoV-2 3CLpro [2]) was “no more inhibition” and the “time within which inhibition is reversible” value (SARS-CoV-2 3CLpro [2]) was no more than 2 h. The “disappearance of the compound” value ([3]; 100 μM in enzymatic assay buffer, 2 mM GSH, 1.5 h incubation) was “less than 10%”, the “reaction conversion with GSH” value ([3]; after 90 min, GSH 2 mM) was less than 10% and the “Thermal shift ΔTm of SARS-CoV-2 3CLpro with GSH” value (SARS-CoV-2 3CLpro [4]) was 11.33 °C.
In the case of `Cc1cccc2nc(CNC(=S)NCc3cccnc3)cn12` [Compound 1A, 1-((5-methylimidazo[1,2-a]pyridin-2-yl)methyl)-3-(pyridin-3-ylmethyl)thiourea], the “Assay without GSH pIC50 ± SD” value (SARS-CoV-2 3CLpro [1]) is reported as 4.46 ± 0.19 and the “inhibitory effect on SARS-CoV-2 3CLpro” value (SARS-CoV-2 3CLpro [1]) is reported as “inactive”.
With `CCSC(=S)NCc1cccnc1` [Compound 1B, Ethyl (pyridin-3-ylmethyl)carbamodithioate] the “fold lower potency compared to compound 1” value (SARS-CoV-2 3CLpro [1]) was 8 fold.
In the case of `S=C(NCc1cccnc1)OCc1ccccc1` [Compound 1D, O-benzyl(pyridin-3-ylmethyl)carbamothioate], the “inhibitory effect on SARS-CoV-2 3CLpro” value (SARS-CoV-2 3CLpro [1]) is reported as “inactive”.
For `CC(=O)[O-].CC(=O)[O-].[Zn+2]` [zinc acetate, reference compound], the “inhibitory activity in presence of zinc chelator EDTA” value (SARS-CoV-2 3CLpro [1]) was “completely loose its inhibitory activity”.
